Patent publication US20100292229A1, “TRYPHOSTIN-ANALOGS FOR THE TREATMENT OF CELL PROLIFERATIVE DISEASES” (The Board of Regents of the University of Texas System, priority 2006, published 2010)

Experiments:
BCR-ABL = molecular target: T1, BCR-ABL (Homo sapiens, UniProt P00519); assay: BCR-ABL protein level and distribution in K562 cells; type: cell-based
T1 construct: The BCR-ABL expressing CML cell line (K562); endogenous in cells; host or cells: K562; the other entry of the earlier key: BCR (P11274, Breakpoint cluster region protein)
Description: Top: The BCR-ABL expressing CML cell line (K562) was incubated with 5 μM Degrasyn for the interval noted before cells were lysed and protein extracts were analyzed for BCR-ABL protein (using anti-Abl) levels by immunoblotting. The blot was stripped and reprobed for actin as a protein loading control.
Bottom: RNA from cells treated as described above was isolated (TRIzol Reagent) and used as a template to generate cDNA. This material was then used to prime a real-time PCR reaction for bcr-abl and ubiquitin (Ub) transcripts. The values are reported in terms of the ratio of bcr-abl to Ub.
K562 cells were treated with Degrasyn (2 h, 5 μM) before cells were lysates were prepared and analyzed for BCR-ABL, c-Abl and BCR protein levels. Actin was probed on the stripped blot to control for protein loading.
K562 cells were treated with nothing (Control), vehicle (DMSO; 0.1%), 5 μM Degrasyn or 5 μM geldanamycin for the interval indicated. Cell lysates were prepared and BCR-ABL, HSP70 and Actin were subjected to immunoblotting.
K562 cells were treated with […] Degrasyn for 1 to 2 h before equal protein cell extracts were immunoblotted for BCR-ABL, c-Abl, BCR, HSP90, HSP70 and actin.
K562 cells were treated with Degrasyn (5 μM) for the interval indicated before cell lysates were prepared (Soluble Fraction; prepared in buffer containing 1% NP-40, 0.5% Na-deoxycholate, 0.1% Na-dodecyl sulfate). […]
Western Blot analysis. Cells were harvested, washed twice in cold 1×PBS and lysed in modified RIPA lysis buffer (150 mM NaCl, 1% NP-40, 0.5% Na-deoxycholate [DOC], 0.1% Na-dodecyl sulfate [SDS], 50 mM Tris-HCl (pH 7.5), 1 mM EDTA, 1 mM NaF, 2 mM Na-vanadate, with protease inhibitors (1 mM PMSF, 1 mM benzamidine, 10 μg/ml aprotinin, 10 μg/ml leupeptin) on ice for 30 min. The lysed cells were centrifuged at 13,000 rpm for 30 min and the supernatant collected. The protein concentration of the cell lysate was determined by the Bradford Protein Assay. Fifty to 60 μg of protein were resolved in a 10% SDS-PAGE, and transferred to a PVDF membrane. […]
Real-Time Quantitative TR-PCR analysis of bcr/abl mRNA. […]

A375 melanoma tumors = A375 melanoma tumors in nude mice; type: in vivo, Swiss nude mice
Description: Ten Swiss nude mice (6-7 weeks of age) were injected subcutaneously (sc) with […] A375 melanoma cells on Day 0. When tumor nodules were palpable (Day 8), animals were divided into 2 groups. One group (Control) received 0.1 ml DMSO/PEG (1:1) intraperitoneally (ip) every other day […] for a total of 14 injections. The second group received 40 mg/kg Degrasyn ip beginning on Day 8 and repeated every other day for a total of 14 injections. Body weight and tumor volumes (by calipers) were measured every other day, the latter plotted vs. time. […] All animals were euthanized when tumor volumes (in the control group) achieved the maximal allowable burden (1.5 cm^3). The average +/−S.E.M. tumor volume from 5 animals per group is shown.
Anti-tumor studies. Swiss Nu/Nu mice were obtained from the breeding facility in the Department of Experimental Radiotherapy at M.D. Anderson Cancer Center. On Day 0, 200 μl of an A375 cell suspension (5×10^6 cells/ml) were injected (s.c.) into female Swiss nude mice 6-7 weeks of age. At the interval noted, compounds were injected (i.p. or oral gavage) into tumor bearing mice in a 0.1 ml suspension of DMSO/PEG300 (50/50). Degrasyn (40 mg/kg) was administrated on an every other day schedule, for 5 or more injections. […] Tumor volumes were measured every other day using calipers (Cel Associates, Houston, Tex.).

[1] = tested on: c-myc and activated Stat3; assay: c-myc, pY-Stat3, Stat3, p53, p-MAPK immunoblot in A375 melanoma cells; type: cell-based; details: A375, 2 h
Description: A375 melanoma cells were pretreated with Degrasyn at the concentration noted for 2 h before the addition of 10 ng/ml IL-6 for 15 min. Cell lysates were prepared and equal protein aliquots were resolved by SDS-PAGE and immunoblotted for c-myc, p53 (wild-type), activated Stat3 (pY-Stat3), Stat3 and activated Erk1/2 kinase (p-MAPK).
Western Blot analysis. Cells were harvested, washed twice in cold 1×PBS and lysed in modified RIPA lysis buffer (150 mM NaCl, 1% NP-40, 0.5% Na-deoxycholate [DOC], 0.1% Na-dodecyl sulfate [SDS], 50 mM Tris-HCl (pH 7.5), 1 mM EDTA, 1 mM NaF, 2 mM Na-vanadate, with protease inhibitors (1 mM PMSF, 1 mM benzamidine, 10 μg/ml aprotinin, 10 μg/ml leupeptin) on ice for 30 min. The lysed cells were centrifuged at 13,000 rpm for 30 min and the supernatant collected. The protein concentration of the cell lysate was determined by the Bradford Protein Assay. Fifty to 60 μg of protein were resolved in a 10% SDS-PAGE, and transferred to a PVDF membrane. Western blotting was performed using specific primary antibodies Peroxidase-conjugated affiniPure anti-Mouse Anti-Rabbit secondary antibodies (Jackson Immunoresearch Laboratories, West Grove, Pa.). The proteins were visualized with ECL Plus reagents (Amersham Biosciences).

BCR-ABL (T315I) = molecular target: T2, BCR-ABL (T315I) (Homo sapiens, UniProt P00519, T315I); assay: pBCR-ABL and BCR-ABL immunoblot in BV-173R cells; type: cell-based; parameters: dose or concentration left out as unconfirmed; details: 1 h
T2 construct: endogenous in cells; host or cells: BV-173R; the other entry of the earlier key: BCR (P11274, Breakpoint cluster region protein)
Description: Actin was probed as protein loading control.
Western Blot analysis. […] Western blotting was performed using specific primary antibodies Peroxidase-conjugated affiniPure anti-Mouse Anti-Rabbit secondary antibodies (Jackson Immunoresearch Laboratories, West Grove, Pa.). The proteins were visualized with ECL Plus reagents (Amersham Biosciences).

SMILES: CCC[C@H](NC(=O)/C(C#N)=C/c1cccc(Br)n1)c1ccccc1 [Degrasyn]
- Cytoplasmic staining of BCR-ABL (microscopy) (BCR-ABL; 5 μM): reduced cytoplasmic staining of BCR-ABL
- BCR-ABL, c-Abl, BCR, HSP90, HSP70 levels (BCR-ABL; 5 µM, 1 to 2 h): down-regulated
- BCR-ABL, c-Abl and BCR protein levels (BCR-ABL; 2 h, 5 μM): reduced BCR-ABL protein levels but had minimal effects on c-Abl and BCR
- Animal weight (A375 melanoma tumors; 40 mg/kg ip every other day): did not affect animal weight
- Growth of A375 tumors (tumor volume) (A375 melanoma tumors; 40 mg/kg ip every other day from Day 8, 14 injections): suppresses the growth of A375 tumors in vivo
- c-myc protein levels and Stat3 activation ([1]; then IL-6 10 ng/ml 15 min): reduced c-myc protein levels suppressed Stat3 activation at higher concentrations
- Stat3, p-MAPK and p53 levels ([1]; then IL-6 15 min): not affected
- pBCR-ABL and BCR-ABL protein levels, BV-173R (BCR-ABL (T315I)): reduced BCR-ABL protein levels in both w/t and mutant BCR-ABL expressing cells
